≈ marks a conversion by molar mass, not a printed value. Marks after values point to notes of the source that are not given here. Each block holds one compound with its values, some of them ahead of it.
Key:
[1] = Dissolution test of eye drop formulations in water; assay type: physicochemical; details: formulation AF1, 450 times dilution in water, maximum at about 10 minutes
Procedure: In order to keep high concentrations of dissolved kinase inhibitors in the aqueous tear fluid the dissolution of the kinase inhibitor must proceed very quickly upon media dilution. The test formulation was above DF3 and the reference formulation was AF1 comprising acrizanib (Table 4 below). A dissolution test was performed by direct adding of a formulation aliquot into defined volume of water under constant stirring speed. The formulation/water ratio (final dilution) selection was based on the quantification limit of the used HPLC method and on the acrizanib solubility. The final dilution of 450 times was selected. At certain time after adding the formulation to water a sample of about 1 ml was taken from a stirring media, filtered through 0.45 µm filter and transferred to an HPLC vial for analysis.

EGFR = EGFR (Homo sapiens, UniProt P00533); details: vendor data; cited from earlier work
Sequence of EGFR (P00533 25-1210, species assumed): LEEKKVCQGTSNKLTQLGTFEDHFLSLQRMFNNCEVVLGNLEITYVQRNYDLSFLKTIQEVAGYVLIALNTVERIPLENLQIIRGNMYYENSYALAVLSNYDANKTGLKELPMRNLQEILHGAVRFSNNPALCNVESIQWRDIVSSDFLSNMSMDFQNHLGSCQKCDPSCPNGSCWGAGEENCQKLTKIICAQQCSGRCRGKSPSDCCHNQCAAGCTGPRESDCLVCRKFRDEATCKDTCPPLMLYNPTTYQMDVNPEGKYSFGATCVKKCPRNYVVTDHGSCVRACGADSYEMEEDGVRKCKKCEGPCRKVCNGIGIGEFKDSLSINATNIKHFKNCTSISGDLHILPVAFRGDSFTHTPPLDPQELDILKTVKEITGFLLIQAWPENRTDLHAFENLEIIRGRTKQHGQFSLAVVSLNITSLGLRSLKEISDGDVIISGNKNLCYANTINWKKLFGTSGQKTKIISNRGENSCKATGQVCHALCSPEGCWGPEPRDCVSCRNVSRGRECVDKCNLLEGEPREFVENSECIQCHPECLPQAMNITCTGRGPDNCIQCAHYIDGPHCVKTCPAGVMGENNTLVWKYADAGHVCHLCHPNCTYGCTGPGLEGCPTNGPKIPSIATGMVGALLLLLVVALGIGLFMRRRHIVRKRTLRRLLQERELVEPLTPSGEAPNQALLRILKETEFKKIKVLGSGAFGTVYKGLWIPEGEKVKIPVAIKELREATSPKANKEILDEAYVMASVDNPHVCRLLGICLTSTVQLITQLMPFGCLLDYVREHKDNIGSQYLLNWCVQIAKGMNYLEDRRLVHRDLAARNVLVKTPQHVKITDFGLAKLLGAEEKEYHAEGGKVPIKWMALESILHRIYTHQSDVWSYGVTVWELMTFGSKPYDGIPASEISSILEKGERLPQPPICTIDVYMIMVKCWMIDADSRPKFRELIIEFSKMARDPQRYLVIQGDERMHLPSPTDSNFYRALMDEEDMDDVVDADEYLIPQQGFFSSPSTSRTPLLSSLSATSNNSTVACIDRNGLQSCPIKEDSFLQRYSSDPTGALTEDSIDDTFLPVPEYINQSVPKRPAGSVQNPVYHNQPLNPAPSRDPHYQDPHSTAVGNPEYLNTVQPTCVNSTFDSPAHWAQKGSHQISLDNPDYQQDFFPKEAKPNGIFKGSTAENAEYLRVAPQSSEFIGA

VEGFR2 [2] = target: T1, VEGFR2 (Homo sapiens, UniProt P35968); assay: VEGFR2 IC50 values obtained from Selleckchem, Tocris Bioscience and TargetMol; assay type: biochemical; details: ratio of vendor IC50 values
T1 sequence (P35968 20-1356, species assumed): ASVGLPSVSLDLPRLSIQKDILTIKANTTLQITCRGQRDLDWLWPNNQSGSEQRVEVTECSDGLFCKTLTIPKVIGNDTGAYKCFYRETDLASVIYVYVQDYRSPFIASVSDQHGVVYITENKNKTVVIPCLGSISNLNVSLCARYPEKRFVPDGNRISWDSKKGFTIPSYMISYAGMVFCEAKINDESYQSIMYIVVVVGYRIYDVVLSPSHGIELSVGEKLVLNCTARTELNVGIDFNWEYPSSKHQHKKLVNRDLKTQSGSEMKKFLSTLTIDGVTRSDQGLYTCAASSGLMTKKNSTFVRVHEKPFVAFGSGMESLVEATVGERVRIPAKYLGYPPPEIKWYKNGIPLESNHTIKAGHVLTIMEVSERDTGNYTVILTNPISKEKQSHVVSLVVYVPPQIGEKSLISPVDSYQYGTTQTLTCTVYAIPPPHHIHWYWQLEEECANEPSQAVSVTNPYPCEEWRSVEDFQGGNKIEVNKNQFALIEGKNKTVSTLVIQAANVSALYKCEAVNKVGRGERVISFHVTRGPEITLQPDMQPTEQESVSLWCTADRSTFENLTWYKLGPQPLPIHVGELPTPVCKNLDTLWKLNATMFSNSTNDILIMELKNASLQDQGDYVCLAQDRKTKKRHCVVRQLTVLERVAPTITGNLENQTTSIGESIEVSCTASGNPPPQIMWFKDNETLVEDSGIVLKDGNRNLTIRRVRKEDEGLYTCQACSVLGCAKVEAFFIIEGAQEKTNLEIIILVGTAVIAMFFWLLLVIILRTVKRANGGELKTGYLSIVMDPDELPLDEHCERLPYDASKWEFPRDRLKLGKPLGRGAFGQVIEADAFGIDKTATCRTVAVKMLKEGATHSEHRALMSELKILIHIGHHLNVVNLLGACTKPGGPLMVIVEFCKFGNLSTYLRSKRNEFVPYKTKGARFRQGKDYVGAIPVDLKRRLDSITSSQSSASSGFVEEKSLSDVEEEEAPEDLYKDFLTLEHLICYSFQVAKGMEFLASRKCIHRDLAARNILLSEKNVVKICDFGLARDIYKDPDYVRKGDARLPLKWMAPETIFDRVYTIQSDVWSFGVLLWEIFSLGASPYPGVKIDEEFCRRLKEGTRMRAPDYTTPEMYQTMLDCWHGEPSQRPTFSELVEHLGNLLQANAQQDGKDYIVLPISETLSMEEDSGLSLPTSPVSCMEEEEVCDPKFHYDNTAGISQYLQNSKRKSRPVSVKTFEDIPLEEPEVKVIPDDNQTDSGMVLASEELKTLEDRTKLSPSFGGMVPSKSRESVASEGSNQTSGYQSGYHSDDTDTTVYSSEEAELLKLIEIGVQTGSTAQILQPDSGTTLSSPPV

[3] = target: VEGFR2 (C-terminal fragment, amino acids D807-V1356) (Homo sapiens, UniProt P35968)
Sequence of VEGFR2 (C-terminal fragment, amino acids D807-V1356) (P35968 807-1356): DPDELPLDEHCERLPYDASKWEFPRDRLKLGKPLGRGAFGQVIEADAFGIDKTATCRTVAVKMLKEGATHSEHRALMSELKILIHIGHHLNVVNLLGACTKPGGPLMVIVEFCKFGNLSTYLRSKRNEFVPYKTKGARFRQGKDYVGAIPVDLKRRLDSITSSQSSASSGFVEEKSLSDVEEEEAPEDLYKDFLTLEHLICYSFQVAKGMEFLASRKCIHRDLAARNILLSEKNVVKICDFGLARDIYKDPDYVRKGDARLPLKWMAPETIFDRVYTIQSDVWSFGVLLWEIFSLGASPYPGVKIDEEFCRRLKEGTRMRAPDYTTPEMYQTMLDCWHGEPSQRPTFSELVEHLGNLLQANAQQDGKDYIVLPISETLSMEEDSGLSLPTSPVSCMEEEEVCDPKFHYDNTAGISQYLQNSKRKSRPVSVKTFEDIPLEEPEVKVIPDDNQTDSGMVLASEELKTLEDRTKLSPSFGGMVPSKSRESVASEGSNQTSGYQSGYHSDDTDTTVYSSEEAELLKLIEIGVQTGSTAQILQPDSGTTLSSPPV

[4] = 7 days
[5] = target: T2, EGFR (C-terminal fragment, amino acids H672-A1210) (Homo sapiens, UniProt P00533); assay: PamChip tyrosine kinase peptide array assay, recombinant EGFR; assay type: biochemical
T2 construct: EGFR (C-terminal fragment, amino acids H672-A1210); purchased Proqinase (Freiburg Germany)
T2 sequence (P00533 672-1210): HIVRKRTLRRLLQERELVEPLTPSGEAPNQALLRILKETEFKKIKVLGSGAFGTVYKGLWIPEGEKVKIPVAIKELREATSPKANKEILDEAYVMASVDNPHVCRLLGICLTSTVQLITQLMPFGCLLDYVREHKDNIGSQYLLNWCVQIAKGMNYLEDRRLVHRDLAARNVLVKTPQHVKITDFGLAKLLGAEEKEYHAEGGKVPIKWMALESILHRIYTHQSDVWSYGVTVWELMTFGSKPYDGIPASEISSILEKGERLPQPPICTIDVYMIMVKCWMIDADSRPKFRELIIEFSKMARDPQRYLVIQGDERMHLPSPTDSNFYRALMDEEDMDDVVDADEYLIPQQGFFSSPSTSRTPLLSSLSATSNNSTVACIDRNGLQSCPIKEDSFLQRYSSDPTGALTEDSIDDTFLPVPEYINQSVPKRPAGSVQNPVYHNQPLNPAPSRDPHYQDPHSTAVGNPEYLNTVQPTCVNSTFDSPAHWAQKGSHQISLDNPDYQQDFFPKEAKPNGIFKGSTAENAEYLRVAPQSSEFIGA

VEGFR2 [6] = assay: PamChip kinase activity profiling in cornea tissue lysates; set-up: VEGFR2 inhibition, Cornea: dose or concentration left out as unconfirmed; details: rabbit cornea lysate
VEGFR2 [7] = assay: PamChip kinase activity profiling in retina tissue lysates; set-up: VEGFR2 inhibition, Retina: dose or concentration left out as unconfirmed; details: rabbit retina lysate
[8] = Solid and dissolved drug fraction and particle size of eye drop microsuspensions; assay type: physicochemical
[9] = Experimental aqueous solubility; assay type: physicochemical
Source text: Further improvement of the complexation efficacy is obtained by addition of EDTA and polymers like tyloxapol.

VEGFR2 [10] = target: T1, VEGFR2; details: vendor data; cited from earlier work
[11] = cited from earlier work
[12] = Phase solubility screening of orantinib with gamma-cyclodextrin at pH 6; assay type: physicochemical; details: 22.5 °C, thermodynamic from solid
Procedure: Phase solubility screening with gamma-cyclodextrin at pH 6. […] The suspensions formed were autoclaved for 15 minutes at 121° C.

[13] = Stability of orantinib in an autoclave; assay type: physicochemical
Source text: Each vial was then split up into 2 vials. One vial of each set was autoclaved and all samples analyzed by HPLC.

[14] = cited from earlier work; for solubility in pure water: 25° C.
[15] = Solubility of axitinib free base with various acids and γ-cyclodextrin
[16] = γ-cyclodextrin eye drop formulations

- fraction of drug dissolved, maximum [1]: about 7.5%
Compound: CNCc1cc(Oc2ccc3c(ccn3C(=O)Nc3cc(C(F)(F)F)n(C)n3)c2)ncn1 [Acrizanib]
- IC50 (EGFR): 1 µM

Compound: O=C(Nc1cc(Oc2cc(F)c(NC(=O)C3(C(=O)Nc4ccc(F)cc4)CC3)cc2F)ccn1)C1CC1 [Altiratinib]
- IC50 (EGFR): 3.3 µM

- EGFR/VEGFR2 ratio (VEGFR2 [2]): 10,000
Compound: COc1cc2c(Oc3ccc4[nH]c(C)cc4c3F)ccnc2cc1OCC1(N)CC1 [Anlotinib]
- IC50 (EGFR): 2 µM

- VEGFR inhibition in the recombinant assays [3]: potent inhibitors for VEGFR
- CE (complexation efficacy) [4]: 0.0002
Compound: CNC(=O)c1ccccc1Sc1ccc2c(/C=C/c3ccccn3)n[nH]c2c1 [Axitinib]

- EGFR/VEGFR2 ratio (VEGFR2 [2]): 3333
Compound: O=C(Nc1cccc(C(F)(F)F)c1)c1cccc2cc(Oc3cc(CO)ncn3)ccc12 [BFH772]
- IC50 (EGFR): 10 µM

Compound: COc1cc2nccc(Oc3ccc(NC(=O)C4(C(=O)Nc5ccc(F)cc5)CC4)cc3)c2cc1OC [Cabozantinib]
- EGFR inhibition in the recombinant assays [5]: do not inhibit EGFR
- VEGFR2 inhibition, Cornea (VEGFR2 [6]): 90.52%
- VEGFR2 inhibition, Retina (VEGFR2 [7]): 74.82%

- diameter of dissolved drug/γ-cyclodextrin complex nanoparticles [8, 16]: below 200 nm
- diameter of solid drug/γ-cyclodextrin complex microparticles [8, 16]: less than 10 µm
- fraction of drug dissolved (free drug, complexes or complex nanoparticles) [8, 16]: about 13%
- fraction of drug in solid drug/γ-cyclodextrin complex microparticles ([8]; γ-cyclodextrin eye drop formulations, from concentration before and after filtration): About 87%
- CE (complexation efficacy) [4]: 0.0578
Compound: COc1cc2c(Oc3ccc4[nH]c(C)cc4c3F)ncnc2cc1OCCCN1CCCC1 [Cediranib]

- increase of drug that could be dissolved and suspended ([8]; lactate salt with EDTA and surface active polymers, versus free base): ~10 fold
- S in water ([9]; pH 6.5): 0.3 ^b mg/mL
Compound: CC(O)C(=O)O.CC(O)C(=O)O.CN1CCN(c2ccc3nc(-c4c(N)c5c(F)cccc5[nH]c4=O)[nH]c3c2)CC1 [Dovitinib dilactate]

- EGFR/VEGFR2 ratio (VEGFR2 [2]): 857
Compound: CNC(=O)c1c(C)oc2cc(Oc3ncnc4cc(OC)c(OC)cc34)ccc12 [Fruquintinib]
- IC50 (EGFR): 30 µM

- EGFR/VEGFR2 ratio (VEGFR2 [2]): 2500
Compound: COc1cc2nccc(Oc3ccc(NC(=O)Nc4ccc(F)cc4F)c(F)c3)c2cc1OC [Ki8751]
- IC50 (VEGFR2 [10]): 4 nM
- IC50 (EGFR): 10 µM

Compound: O=C(O)CC(O)C(=O)O (centres unmarked) [Malic]
- pKa (first or only value) [11]: 3.51
- pKa (second value) [11]: 5.03

- CE (complexation efficacy) [4]: 0.0052
Compound: CC1(C)CNc2cc(NC(=O)c3cccnc3NCc3ccncc3)ccc21 [Motesanib]

Compound: COC(=O)c1ccc2c(c1)NC(=O)/C2=C(\Nc1ccc(N(C)C(=O)CN2CCN(C)CC2)cc1)c1ccccc1 [Nintedanib]
- VEGFR2 inhibition, Cornea (VEGFR2 [6]): 95.92%
- VEGFR2 potency ranking in cornea (VEGFR2 [6]): most potent VEGFR2 inhibitor
- VEGFR2 inhibition, Retina (VEGFR2 [7]): 94.33%
- VEGFR2 potency ranking in retina (VEGFR2 [7]): most potent VEGFR2 inhibitor

- EGFR/VEGFR2 ratio (VEGFR2 [2]): 1000
Compound: O=C(Nc1ccc(OC(F)(F)F)cc1)c1sccc1NCc1ccnc2ccccc12 [OSI-930]
- IC50 (EGFR): 10 µM

- solubility at 4 h ([12]; water with 0 % (w/v) γ-cyclodextrin, water, 0 % (w/v) γCD, pH 6.3): 4 µg/mL (≈ 12.9 µM)
- solubility at 4 h ([12]; water with 5 % (w/v) γ-cyclodextrin, aqueous with cosolvent or surfactant or cyclodextrin, 5 % (w/v) γCD, pH 6.1): 14 µg/mL (≈ 45.1 µM)
- solubility at 4 h ([12]; water with 10 % (w/v) γ-cyclodextrin, aqueous with cosolvent or surfactant or cyclodextrin, 10 % (w/v) γCD, pH 6.2): 17 µg/mL (≈ 54.8 µM)
- solubility at 4 h ([12]; water with 15 % (w/v) γ-cyclodextrin, aqueous with cosolvent or surfactant or cyclodextrin, 15 % (w/v) γCD, pH 6.0): 12 µg/mL (≈ 38.7 µM)
- concentration before autoclave ([13]; sample 1-29, MQ water with NaOH, pH 7.4, filtered 0.45 micrometer): 60 µq/ml
- concentration after autoclave ([13]; sample 1-29, pH 7.4): 64 µg/mL
- concentration before autoclave ([13]; sample 2-29, MQ water with NaOH, pH 7.6, filtered 0.45 micrometer): 182 µq/ml
- concentration after autoclave ([13]; sample 2-29, pH 7.6): 176 µg/mL
- concentration before autoclave ([13]; sample 3-29, MQ water with NaOH, pH 7.8, filtered 0.45 micrometer): 321 µq/ml
- concentration after autoclave ([13]; sample 3-29, pH 7.8): 316 µg/mL
Compound: Cc1[nH]c(/C=C2\C(=O)Nc3ccccc32)c(C)c1CCC(=O)O [Orantinib]

- CE (complexation efficacy) [4]: 0.00002
Compound: Cc1ccc(Nc2nccc(N(C)c3ccc4c(C)n(C)nc4c3)n2)cc1S(N)(=O)=O [Pazopanib]

- CE (complexation efficacy) [4]: 0.00002
Compound: CNC(=O)c1cc(Oc2ccc(NC(=O)Nc3ccc(Cl)c(C(F)(F)F)c3)c(F)c2)ccn1 [Regorafenib]
- IC50 (EGFR): 1 µM

Compound: COCCNCc1ccc(-c2cc3nccc(Oc4ccc(NC(=O)C5(C(=O)Nc6ccc(F)cc6)CC5)cc4F)c3s2)nc1 [Sitravatinib]
- IC50 (EGFR): 5 µM

- EGFR/VEGFR2 ratio (VEGFR2 [2]): 25,000
Compound: Cc1cc(F)c(Nc2ncnc3cc(OCc4ccccc4)ccc23)cc1O [ZM 323881, 5-((7-Benzyloxyquinazolin-4-yl)amino)-4-fluoro-2-methylphenol]
- IC50 (EGFR): 50 µM

Compound: OC[C@H]1O[C@@H]2O[C@H]3[C@H](O)[C@@H](O)[C@@H](O[C@H]4[C@H](O)[C@@H](O)[C@@H](O[C@H]5[C@H](O)[C@@H](O)[C@@H](O[C@H]6[C@H](O)[C@@H](O)[C@@H](O[C@H]7[C@H](O)[C@@H](O)[C@@H](O[C@H]1[C@H](O)[C@H]2O)O[C@@H]7CO)O[C@@H]6CO)O[C@@H]5CO)O[C@@H]4CO)O[C@@H]3CO [α-cyclodextrin]
- solubility in pure water [14]: 129.5 ± 0.7 mg/mL (≈ 133000 µM)

- γCD in solution ([15]; 10 mg/ml Axi + 50 mg/ml γCD + Acetic acid (1:1 molar), pH 3.5): 24 mg/mL
- γCD in solution ([15]; 10 mg/ml Axi + 50 mg/ml γCD + Ascorbic acid (1:1 molar), pH 3.1): 27 mg/mL
- γCD in solution ([15]; 10 mg/ml Axi + 50 mg/ml γCD + Hydrochloric acid (1:1 molar), pH 3.2): 21 mg/mL
- γCD in solution ([15]; 10 mg/ml Axi + 50 mg/ml γCD + Lactic acid (1:1 molar), pH 2.8): 24 mg/mL
- γCD in solution ([15]; 10 mg/ml Axi + 50 mg/ml γCD + Maleic acid (1:1 molar), pH 2.3): 25 mg/mL
- γCD in solution ([15]; 10 mg/ml Axi + 50 mg/ml γCD + Malic acid (1:1 molar), pH 3.0): 24 mg/mL
- γCD in solution ([15]; 10 mg/ml Axi + 50 mg/ml γCD + Tartaric acid (1:1 molar), pH 2.7): 22 mg/mL
- γCD in solution ([15]; 10 mg/ml Axi + 50 mg/ml γCD, no acid, pH 9.1): 22 mg/mL
Compound: OC[C@H]1O[C@@H]2O[C@H]3[C@H](O)[C@@H](O)[C@@H](O[C@H]4[C@H](O)[C@@H](O)[C@@H](O[C@H]5[C@H](O)[C@@H](O)[C@@H](O[C@H]6[C@H](O)[C@@H](O)[C@@H](O[C@H]7[C@H](O)[C@@H](O)[C@@H](O[C@H]8[C@H](O)[C@@H](O)[C@@H](O[C@H]9[C@H](O)[C@@H](O)[C@@H](O[C@H]1[C@H](O)[C@H]2O)O[C@@H]9CO)O[C@@H]8CO)O[C@@H]7CO)O[C@@H]6CO)O[C@@H]5CO)O[C@@H]4CO)O[C@@H]3CO [γ-cyclodextrin]
- solubility in pure water [14]: 249.2 ± 0.2 mg/mL (≈ 192000 µM)
- solubility in aqueous 3% (w/v) γ-cyclodextrin suspension saturated with hydrocortisone [14]: 13 mg/mL
- solubility in pure water at room temperature [14]: about 250 mg/ml

Compound: Cediranib maleate
- solubility compared with the free base [9]: significant greater solubility than the free base

Source: patent US20230263907A1, “PREPARATION OF SOLID CYCLODEXTRIN COMPLEXES FOR OPHTHALMIC ACTIVE PHARMACEUTICAL INGREDIENT DELIVERY” (OCULIS SA, priority 2020, published 2023)
